According to US10278956B1, “Use of intravenous melatonin in patients with ST-elevation myocardial infarction” (priority 2018, dated 2019):
Entries after “also recorded” stand apart in the source; their conditions may differ.

Assays:
[1] = test system: closed-chest porcine model; settings: combined intracoronary and intravenous treatment; cited from earlier work
STEMI-patients = assay: Pilot randomized, double-blinded, placebo controlled study of intravenous melatonin before pPCI; infarct size by CMR; assay type: in vivo, human
Procedure: This pilot study is a prospective, randomized, double-blinded, placebo controlled study of consecutive patients admitted with a STEMI. Additional inclusion criteria were presented within 6 hours of chest pain onset and occlusion of culprit artery with TIMI basal flow grade 0 to 1. Patients randomised to intravenous melatonin received a dose of 12 mg (51.7 μmol, in saline solution, in a volume of 50 ml in an opaque syringe) given by a time period of 60 minutes starting immediately before primary percutaneous coronary intervention (pPCI), by via a catheter positioned within a peripheral vein. The control group received a matching intravenous placebo formulation.
A total of 31 patients were enrolled. Groups were well balanced for age, gender, and cardiovascular risk factors. No significant differences were observed between groups concerning baseline clinical and angiographic characteristics. Randomized patients were divided in 2 groups: Group 1 (patients with ischemia duration 3 hours) and Group 2 (patients with ischemia duration >3 hours). Group 1 there had 17 patients (8 treated with melatonin and 9 with placebo) and in the group 2 there were 14 patients (6 treated with melatonin and 8 with placebo).
Myocardial infarct size was calculated as percentage of left ventricular mass by cardiovascular magnetic resonance (CMR).

[2] = test system: patients with ST-segment elevation myocardial infarction (STEMI); settings: earlier published trial; cited from earlier work
[3] = Group 1 (≤3 hours ischemia duration), 12 mg intravenous over 60 min starting immediately before pPCI, CMR, *P < 0.01 vs Placebo
[4] = Group 2 (>3 hours ischemia duration), 12 mg intravenous over 60 min starting immediately before pPCI, CMR

COc1ccc2[nH]cc(CCNC(C)=O)c2c1 [Melatonin, melatonin]
Myocardial reperfusion injury [1]: did not reduce myocardial reperfusion injury | Infarct size (g) (STEMI-patients; [3]): 16.53 ± 7.28* g | Infarct size (proportion of left ventricular mass) % (STEMI-patients; [3]): 17.71 ± 7.55* % | Infarct size (STEMI-patients; [4]): 25.69 ± 7.34 g | Infarct size (proportion of left ventricular mass) % (STEMI-patients; [4]): 20.62 ± 5.37% | Myocardial infarct size compared with placebo (STEMI-patients; intravenous, given within 3 hours or less after symptom onset (group 1)): significantly reduces myocardial infarct size; also recorded: significantly smaller | Effect on myocardial infarct size compared with placebo (STEMI-patients; time from symptom onset to melatonin administration longer than 3 hours): significantly reduced or even opposite effect | Effect on ventricular volumes and LVEF evolution [2]: unfavorable effect | Myocardial infarct size (MIS) compared with placebo [2]: failed to reduce myocardial infarct size
